Experimental data reported in patent US9469674B2 (HAINAN UNIVERSITY, dated 2016).

Tested on: Chronic Constriction Injury model of ischiadic nerve (neuralgia)
Conditions: rat, in vivo

CN1CC[C@]23c4c5ccc(O)c4O[C@H]2[C@@H](O)C=C[C@H]3[C@H]1C5 [morphine, reference compound]
analgesic effect on neuralgia: no analgesic effect | mechanical threshold after withdrawal: no significant difference
